This note sets out measurements from ChEMBL document CHEMBL5465560, “Selectivity Literature for EUbOPEN Chemogenomic Library” (2024).

Assay [1] has as its target Tyrosine-protein kinase ABL2 (Homo sapiens, UniProt P42684). As to the kind of experiment: Selectivity interaction (ProQinase) EUB0000171b ABL2.
Assay [2] addresses Phosphatidylinositol 4-phosphate 5-kinase type-1 gamma (Homo sapiens) (UniProt O60331). As to the kind of experiment: Selectivity interaction (KinomeScan (DiscoverX)) EUB0001079a PIP5K1C. As to conditions: at 1 µM.
Assay [3] concerns the target Kappa-type opioid receptor (Homo sapiens, UniProt P41145). In words: Selectivity interaction (Panel of non-epigenetic targets (kinases, GPCRs, ion channels, and transporters, Eurofins) ) EUB0000271b OPRK1. As to conditions: at 1 µM.
In assay [4] the target is T1, Tyrosine-protein kinase TXK (Homo sapiens) (UniProt P42681).
T1 sequence (whole entry): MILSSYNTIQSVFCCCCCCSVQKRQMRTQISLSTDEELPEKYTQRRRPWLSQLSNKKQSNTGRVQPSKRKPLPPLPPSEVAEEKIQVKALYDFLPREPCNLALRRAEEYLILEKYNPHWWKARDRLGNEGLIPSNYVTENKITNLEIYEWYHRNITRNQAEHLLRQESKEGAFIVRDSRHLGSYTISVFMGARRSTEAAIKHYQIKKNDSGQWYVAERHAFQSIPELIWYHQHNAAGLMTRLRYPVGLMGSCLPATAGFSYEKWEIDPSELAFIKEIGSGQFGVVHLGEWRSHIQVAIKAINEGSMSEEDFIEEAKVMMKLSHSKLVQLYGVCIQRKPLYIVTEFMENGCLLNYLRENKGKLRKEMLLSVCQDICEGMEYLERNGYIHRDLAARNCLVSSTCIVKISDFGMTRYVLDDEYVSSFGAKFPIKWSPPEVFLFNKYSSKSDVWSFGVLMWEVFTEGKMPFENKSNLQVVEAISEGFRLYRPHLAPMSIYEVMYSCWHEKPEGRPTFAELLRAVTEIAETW
As to the kind of experiment: Selectivity interaction (KinomeScan (DiscoverX)) EUB0000666a TXK. As to conditions: at 10 µM.

The subject of assay [5] is Phosphatidylinositol 4,5-bisphosphate 3-kinase catalytic subunit alpha isoform (Homo sapiens), P42336 [H1047L]. As to the kind of experiment: (§1) Selectivity interaction (KinomeScan (DiscoverX)) EUB0000666a PIK3CA. Conditions: at 10 µM.
In assay [6] the target is Phosphatidylinositol 4,5-bisphosphate 3-kinase catalytic subunit alpha isoform (Homo sapiens) (UniProt P42336). The description is as §1. As to conditions: at 10 µM.
Assay [7] has as its system Phosphatidylinositol 4,5-bisphosphate 3-kinase catalytic subunit alpha isoform (Homo sapiens), P42336 [E545K]. The description is as §1. Conditions: at 10 µM.
Assay [8] concerns Phosphatidylinositol 4,5-bisphosphate 3-kinase catalytic subunit alpha isoform (Homo sapiens), P42336 [C420R]. The description is as §1. Conditions: at 10 µM.
Chain of Phosphatidylinositol 4,5-bisphosphate 3-kinase catalytic subunit alpha isoform (Homo sapiens), P42336 [C420R] (P42336 whole entry C420R, canonical isoform): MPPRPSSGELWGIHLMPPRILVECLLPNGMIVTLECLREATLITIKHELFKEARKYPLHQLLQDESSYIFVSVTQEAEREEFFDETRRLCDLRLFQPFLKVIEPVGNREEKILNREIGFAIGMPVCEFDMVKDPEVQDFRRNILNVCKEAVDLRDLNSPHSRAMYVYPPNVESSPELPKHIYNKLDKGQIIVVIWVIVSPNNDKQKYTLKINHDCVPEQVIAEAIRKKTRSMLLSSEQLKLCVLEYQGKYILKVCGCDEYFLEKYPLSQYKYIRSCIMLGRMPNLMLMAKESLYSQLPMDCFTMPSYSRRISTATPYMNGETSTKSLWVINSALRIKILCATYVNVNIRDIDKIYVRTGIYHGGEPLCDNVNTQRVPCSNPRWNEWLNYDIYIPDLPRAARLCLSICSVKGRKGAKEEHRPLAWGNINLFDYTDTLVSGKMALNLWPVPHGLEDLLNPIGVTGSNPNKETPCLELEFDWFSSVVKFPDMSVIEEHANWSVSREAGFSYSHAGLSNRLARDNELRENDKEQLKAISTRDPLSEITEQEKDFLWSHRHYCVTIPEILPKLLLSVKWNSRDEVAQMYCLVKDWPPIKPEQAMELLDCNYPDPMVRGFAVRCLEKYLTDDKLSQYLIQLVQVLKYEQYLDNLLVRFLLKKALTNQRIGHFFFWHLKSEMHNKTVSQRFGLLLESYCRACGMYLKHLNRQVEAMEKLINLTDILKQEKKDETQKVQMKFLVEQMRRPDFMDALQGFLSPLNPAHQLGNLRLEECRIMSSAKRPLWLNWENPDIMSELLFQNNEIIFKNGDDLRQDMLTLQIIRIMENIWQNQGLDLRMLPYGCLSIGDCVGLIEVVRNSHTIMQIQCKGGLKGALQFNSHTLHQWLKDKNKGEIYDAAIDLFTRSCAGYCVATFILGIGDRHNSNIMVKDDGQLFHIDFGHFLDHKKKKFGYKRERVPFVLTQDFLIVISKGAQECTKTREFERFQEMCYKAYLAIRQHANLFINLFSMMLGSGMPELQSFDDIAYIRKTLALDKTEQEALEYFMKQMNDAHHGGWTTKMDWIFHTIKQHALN
Assay [9] deals with Phosphatidylinositol 4,5-bisphosphate 3-kinase catalytic subunit alpha isoform (Homo sapiens), P42336 [Q546K]. The description is as §1. Conditions: at 10 µM.
Assay [10] has as its system Phosphatidylinositol 4,5-bisphosphate 3-kinase catalytic subunit alpha isoform (Homo sapiens), P42336 [M1043I]. The assay is described as §1. Conditions: at 10 µM.
The test system of assay [11] is Phosphatidylinositol 4,5-bisphosphate 3-kinase catalytic subunit alpha isoform (Homo sapiens), P42336 [I800L]. The description is as §1. Conditions: at 10 µM.
In assay [12] the target is Serine/threonine-protein kinase B-raf (Homo sapiens) (UniProt P15056). As to the kind of experiment: (§2) Selectivity interaction (KinomeScan (DiscoverX)) EUB0000666a BRAF. As to conditions: at 10 µM.
The test system of assay [13] is Serine/threonine-protein kinase B-raf (Homo sapiens), P15056 [V600E]. Described as §2. As to conditions: at 10 µM.
The target in assay [14] is Atypical kinase COQ8A, mitochondrial (Homo sapiens, UniProt Q8NI60). As to the kind of experiment: Selectivity interaction (KinomeScan (DiscoverX)) EUB0000666a ADCK3. As to conditions: at 10 µM.
Chain of Atypical kinase COQ8A, mitochondrial (Q8NI60 163-647 limits assumed): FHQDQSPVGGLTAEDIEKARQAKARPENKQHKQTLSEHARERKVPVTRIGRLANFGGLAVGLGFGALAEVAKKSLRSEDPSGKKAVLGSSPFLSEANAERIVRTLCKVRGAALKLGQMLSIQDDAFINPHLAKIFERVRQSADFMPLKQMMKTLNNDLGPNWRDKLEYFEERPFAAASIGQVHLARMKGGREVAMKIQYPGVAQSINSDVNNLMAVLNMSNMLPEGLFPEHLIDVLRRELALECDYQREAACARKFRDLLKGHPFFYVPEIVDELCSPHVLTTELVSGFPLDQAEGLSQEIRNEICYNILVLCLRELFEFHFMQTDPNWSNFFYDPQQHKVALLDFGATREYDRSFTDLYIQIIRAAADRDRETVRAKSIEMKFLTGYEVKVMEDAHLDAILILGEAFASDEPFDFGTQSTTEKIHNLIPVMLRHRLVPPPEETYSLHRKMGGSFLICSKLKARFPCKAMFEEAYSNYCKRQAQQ
Assay [15] concerns the target Glycogen synthase kinase-3 beta (Homo sapiens, UniProt P49841). As to the kind of experiment: Selectivity interaction (Kinase panel (Z-LYTE Assay)) EUB0001632a GSK3B. Conditions: at 10 µM.
For the next assay, the target named is SRSF protein kinase 1 (Homo sapiens, UniProt Q96SB4). In words: Selectivity interaction (Kinase panel (Z-LYTE Assay)) EUB0001632a SRPK1. Conditions: at 10 µM.
Assay [16] deals with Serine/threonine-protein kinase PLK2 (Homo sapiens, UniProt Q9NYY3). As to the kind of experiment: Selectivity interaction (SelectScreen profiling (Invitrogen)) EUB0000607a PLK2. As to conditions: at 2 µM.
For assay [17], the target named is Mitogen-activated protein kinase 3 (Homo sapiens, UniProt P27361). In words: Selectivity interaction (SelectScreen profiling (Invitrogen)) EUB0000607a MAPK3. As to conditions: at 2 µM.
Assay [18] deals with T2, Mitogen-activated protein kinase 13 (Homo sapiens) (UniProt O15264).
T2 sequence (whole entry): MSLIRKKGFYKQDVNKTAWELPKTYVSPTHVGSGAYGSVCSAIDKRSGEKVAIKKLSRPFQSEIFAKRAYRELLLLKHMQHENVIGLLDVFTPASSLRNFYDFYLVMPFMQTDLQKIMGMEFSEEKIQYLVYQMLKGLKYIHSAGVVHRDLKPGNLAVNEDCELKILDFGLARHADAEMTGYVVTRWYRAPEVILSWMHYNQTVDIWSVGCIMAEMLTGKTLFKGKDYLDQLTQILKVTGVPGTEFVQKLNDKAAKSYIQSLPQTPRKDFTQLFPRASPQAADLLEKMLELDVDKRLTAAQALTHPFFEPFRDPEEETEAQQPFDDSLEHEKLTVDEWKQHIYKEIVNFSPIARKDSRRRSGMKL
As to the kind of experiment: Selectivity interaction (Kinase panel (Invitrogen)) EUB0000639a MAPK13. As to conditions: at 200 nM.

Assay [19] addresses Tyrosine-protein kinase Fer (Homo sapiens) (UniProt P16591). As to the kind of experiment: Selectivity interaction (ActivX KiNativ screen (kinase selectivity in THP-1 cell lysates)) EUB0000639a FER. It counts as subcellular. As to conditions: lysate, at 5 µM.
Assay [20] deals with Tyrosine-protein kinase ABL1 (Homo sapiens, UniProt P00519). In words: Selectivity interaction (ActivX KiNativ screen (kinase selectivity in THP-1 cell lysates)) EUB0000639a ABL1. It counts as subcellular. As to conditions: lysate.
Chain of Tyrosine-protein kinase ABL1 (P00519 whole entry): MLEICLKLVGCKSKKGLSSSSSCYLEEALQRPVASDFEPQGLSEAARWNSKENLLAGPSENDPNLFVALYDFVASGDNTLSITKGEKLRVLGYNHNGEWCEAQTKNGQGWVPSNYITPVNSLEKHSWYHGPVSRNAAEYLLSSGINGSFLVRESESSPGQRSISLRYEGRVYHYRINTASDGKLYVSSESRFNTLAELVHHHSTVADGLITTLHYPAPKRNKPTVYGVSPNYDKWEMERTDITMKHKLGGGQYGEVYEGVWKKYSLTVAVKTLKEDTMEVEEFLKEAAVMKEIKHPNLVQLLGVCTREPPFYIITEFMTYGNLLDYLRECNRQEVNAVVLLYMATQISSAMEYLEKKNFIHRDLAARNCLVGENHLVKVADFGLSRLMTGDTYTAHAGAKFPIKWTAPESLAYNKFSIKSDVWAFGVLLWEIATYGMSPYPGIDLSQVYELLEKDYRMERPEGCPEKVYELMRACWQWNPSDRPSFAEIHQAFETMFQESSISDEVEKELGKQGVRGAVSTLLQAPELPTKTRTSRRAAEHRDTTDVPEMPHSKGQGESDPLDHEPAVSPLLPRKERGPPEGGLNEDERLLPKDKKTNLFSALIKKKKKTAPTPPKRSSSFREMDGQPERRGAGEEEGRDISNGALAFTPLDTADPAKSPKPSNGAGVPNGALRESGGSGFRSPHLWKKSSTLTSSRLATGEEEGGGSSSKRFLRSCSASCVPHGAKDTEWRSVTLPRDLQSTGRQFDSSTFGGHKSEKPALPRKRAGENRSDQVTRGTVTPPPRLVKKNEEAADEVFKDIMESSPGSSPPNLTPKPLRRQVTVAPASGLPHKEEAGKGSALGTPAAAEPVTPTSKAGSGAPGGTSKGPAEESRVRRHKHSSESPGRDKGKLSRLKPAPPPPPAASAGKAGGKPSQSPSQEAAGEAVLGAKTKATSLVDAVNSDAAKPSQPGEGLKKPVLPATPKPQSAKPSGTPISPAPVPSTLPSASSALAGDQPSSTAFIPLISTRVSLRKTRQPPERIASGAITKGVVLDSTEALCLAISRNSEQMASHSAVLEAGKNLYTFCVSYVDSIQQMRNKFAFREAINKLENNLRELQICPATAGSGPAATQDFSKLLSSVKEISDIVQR
Assay [21] relates to Epidermal growth factor receptor (Homo sapiens), P00533 [G719C]. As to the kind of experiment: (§3) Selectivity interaction (KinomeScan (DiscoverX)) EUB0000229b EGFR. Conditions: at 1 µM.
Assay [22] relates to Epidermal growth factor receptor (Homo sapiens), P00533 [UNDEFINED MUTATION]. The assay is described as §3. Conditions: at 1 µM.
Assay [23] concerns the target Epidermal growth factor receptor (Homo sapiens, UniProt P00533). Described as §3. Conditions: at 10 µM.
The subject of assay [24] is Epidermal growth factor receptor (Homo sapiens), P00533 [L861Q]. The description is as §3. As to conditions: at 1 µM.
In assay [25] the test system is Epidermal growth factor receptor (Homo sapiens), P00533 [T790M]. Described as §3. Conditions: at 1 µM.
Assay [26] relates to Epidermal growth factor receptor (Homo sapiens), P00533 [L858R]. Described as §3. Conditions: at 1 µM.
Assay [27] deals with Epidermal growth factor receptor (Homo sapiens), P00533 [L858R,T790M]. Described as §3. Conditions: at 1 µM.
In assay [28] the test system is Epidermal growth factor receptor (Homo sapiens), P00533 [G719S]. Described as §3. Conditions: at 1 µM.
In assay [29] the target is Ribosomal protein S6 kinase alpha-3 (Homo sapiens, UniProt P51812). As to the kind of experiment: Selectivity interaction (KinomeScan (DiscoverX)) EUB0000595a RPS6KA3. Conditions: at 10 µM.
Assay [30] addresses BMP-2-inducible protein kinase (Homo sapiens) (UniProt Q9NSY1). In words: Selectivity interaction (KinomeScan (DiscoverX)) EUB0000595a BMP2K. As to conditions: at 10 µM.

Chain of Tyrosine-protein kinase ABL2 (P42684 whole entry): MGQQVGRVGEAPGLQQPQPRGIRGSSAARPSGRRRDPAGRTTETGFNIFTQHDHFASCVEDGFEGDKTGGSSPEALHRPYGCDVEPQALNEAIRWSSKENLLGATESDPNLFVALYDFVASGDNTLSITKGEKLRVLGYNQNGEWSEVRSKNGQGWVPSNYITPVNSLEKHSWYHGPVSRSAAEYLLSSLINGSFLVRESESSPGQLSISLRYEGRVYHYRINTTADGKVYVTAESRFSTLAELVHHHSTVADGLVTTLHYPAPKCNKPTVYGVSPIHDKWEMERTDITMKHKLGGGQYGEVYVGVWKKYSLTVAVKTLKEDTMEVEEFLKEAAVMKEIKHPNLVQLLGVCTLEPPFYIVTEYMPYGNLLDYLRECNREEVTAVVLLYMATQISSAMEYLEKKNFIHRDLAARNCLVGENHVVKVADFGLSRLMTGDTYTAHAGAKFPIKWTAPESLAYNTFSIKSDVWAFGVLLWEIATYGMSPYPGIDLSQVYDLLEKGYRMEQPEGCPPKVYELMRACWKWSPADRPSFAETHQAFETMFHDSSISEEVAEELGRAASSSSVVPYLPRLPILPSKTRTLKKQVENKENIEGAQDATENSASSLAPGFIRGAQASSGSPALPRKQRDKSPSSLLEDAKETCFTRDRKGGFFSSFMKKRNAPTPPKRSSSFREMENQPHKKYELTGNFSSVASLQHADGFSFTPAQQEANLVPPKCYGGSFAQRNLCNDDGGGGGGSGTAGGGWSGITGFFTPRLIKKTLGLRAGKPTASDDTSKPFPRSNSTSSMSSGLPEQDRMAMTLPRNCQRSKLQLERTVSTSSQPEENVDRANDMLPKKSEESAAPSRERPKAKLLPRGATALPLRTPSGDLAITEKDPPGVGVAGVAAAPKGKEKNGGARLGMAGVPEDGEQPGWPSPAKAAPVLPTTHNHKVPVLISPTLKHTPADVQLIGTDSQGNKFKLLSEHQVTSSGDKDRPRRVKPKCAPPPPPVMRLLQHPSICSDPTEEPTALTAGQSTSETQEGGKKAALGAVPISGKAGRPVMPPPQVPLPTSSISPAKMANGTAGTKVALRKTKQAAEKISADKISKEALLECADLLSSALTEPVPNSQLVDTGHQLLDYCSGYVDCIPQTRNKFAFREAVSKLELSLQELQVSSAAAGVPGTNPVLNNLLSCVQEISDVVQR
Chain of Phosphatidylinositol 4-phosphate 5-kinase type-1 gamma (Homo sapiens) (O60331 whole entry): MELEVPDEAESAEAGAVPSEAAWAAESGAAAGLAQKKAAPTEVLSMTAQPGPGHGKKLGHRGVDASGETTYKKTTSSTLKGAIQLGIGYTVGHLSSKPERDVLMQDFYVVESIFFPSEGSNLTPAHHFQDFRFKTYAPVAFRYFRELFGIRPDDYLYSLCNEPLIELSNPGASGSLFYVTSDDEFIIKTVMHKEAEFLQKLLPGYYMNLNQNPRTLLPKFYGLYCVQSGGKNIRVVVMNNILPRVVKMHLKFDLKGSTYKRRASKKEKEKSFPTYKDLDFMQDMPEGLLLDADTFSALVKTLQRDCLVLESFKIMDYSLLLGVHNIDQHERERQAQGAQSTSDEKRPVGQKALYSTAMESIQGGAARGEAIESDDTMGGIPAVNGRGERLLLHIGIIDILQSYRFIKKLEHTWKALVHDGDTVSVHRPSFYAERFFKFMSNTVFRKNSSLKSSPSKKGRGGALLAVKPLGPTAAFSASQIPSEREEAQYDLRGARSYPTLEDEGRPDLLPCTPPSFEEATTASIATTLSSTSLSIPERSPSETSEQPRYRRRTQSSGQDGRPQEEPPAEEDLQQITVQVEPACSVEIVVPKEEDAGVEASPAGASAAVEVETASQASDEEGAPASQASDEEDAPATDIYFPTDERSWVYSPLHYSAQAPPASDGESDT
Chain of Kappa-type opioid receptor (P41145 whole entry): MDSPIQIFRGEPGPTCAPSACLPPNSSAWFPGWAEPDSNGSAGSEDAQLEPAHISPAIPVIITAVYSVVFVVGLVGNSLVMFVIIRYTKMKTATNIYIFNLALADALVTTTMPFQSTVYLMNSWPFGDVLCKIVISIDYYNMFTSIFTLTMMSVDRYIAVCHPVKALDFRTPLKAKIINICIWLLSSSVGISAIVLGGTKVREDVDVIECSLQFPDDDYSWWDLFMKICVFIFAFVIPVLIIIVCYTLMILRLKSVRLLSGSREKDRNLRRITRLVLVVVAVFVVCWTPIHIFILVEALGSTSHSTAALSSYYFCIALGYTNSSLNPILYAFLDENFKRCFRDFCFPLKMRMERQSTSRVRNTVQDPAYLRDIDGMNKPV

As for `C=CC(=O)Nc1cccc(C(=O)Nc2ccc(Nc3cc(-c4[nH]c(SC)nc4C)ccn3)cc2)c1`, the % of control in [1] (at 1 µM) turned out to be 74%; in assay [1] (at 5 µM) it was 84%.

In turn, `Nc1cnc(N2CCc3cc(S(=O)(=O)Nc4c(F)cc(Cl)cc4F)cc(N4CCCC4=O)c32)nc1` [TP-020n] gave a % of control in [2] of 75%.

Take `Cc1cc(C)cc([C@@H]2c3cc(C)ccc3NC(=O)CN2C(=O)c2ccc(Br)s2)c1`: in assay [3], the % of inhibition amounted to 20%.

For the compound `O=C(NOC[C@H](O)CO)c1ccc(F)c(F)c1Nc1ccc(I)cc1F`, the % of control is 100% in assay [4]; 45% in assay [5]; 56% in assay [6]; 53% in [7]; 50% in assay [8]; 41% in assay [9]. Also, the % of control in [10] worked out at 42%; in assay [11], 33%; in assay [12] it was 98%; in assay [13] it was 100%; in assay [14], 86%.

Take `Cn1cc(-n2cnc3c(NCc4nc5cc(Cl)c(Cl)cc5[nH]4)nc(N4CCOCC4)nc32)cn1`: the results for the % of control (in assay [15]; on SRSF protein kinase 1) were 89.1% and 0.97%, respectively.

`CNC(=O)Nc1ccc(-c2nc(N3CC4CCC(C3)O4)c3cnn(C4CCC5(CC4)OCCO5)c3n2)cc1`: the % of inhibition in assay [16] and in assay [17] was 1% throughout.

For `CC[C@@H]1[C@H](F)C(=O)N[C@@H]1COc1nccc2cc(C(N)=O)c(OC)cc12` [ZIMLOVISERTIB], the % of inhibition is 6.06% in assay [18]; -6.1% in [19]; 12.8% in assay [20] (at 0.01 µM); -16% in assay [20] (at 0.04 µM); -25.4% in assay [20] (at 0.2 µM); -5.3% in assay [20] (at 1 µM). Further, in assay [20] (at 5 µM), the % of inhibition is -19.6%.

With `COc1cc(N(C)c2ccnc3ccc(C(F)(F)F)cc23)cc(OC)c1OC`, the % binding in assay [21] amounted to 92%; in assay [22] it was 84%; in assay [23], 96%; in assay [24], 97%; in assay [25], 100%; in [26], 99%. Moreover, the % binding is 86% in [27] and 92% in assay [28].

On to `COCC(=O)NC/C=C/c1ccc2ncnc(Nc3ccc(Oc4ccc(C)nc4)c(C)c3)c2c1` [CP-724714], for which the results for the % of control in assay [29] and in assay [30] were 92% and 73%, respectively.
